“And” between values parts separate entries of the source, which are not always exact repeats. Identical values can stand only once. Like-named read-outs stand apart in the source and are kept apart here. Bounds are passed on as bounds.

Data set [1] concerns purified firefly luciferase (luc) expressed from E. coli. Kind of data set: Bioluminescence emission scans. Format: biochemical, Photinus pyralis. The following applies: for bioluminescence emission wavelength: FIG. 7, 10 nM luciferase with 100 μM substrate; for λmax: bioluminescence emission with luciferase. Here is the method: FIG. 7 is a bioluminescence emission spectrum for 10 nM luciferase with 100 μM D-thioluciferin.
Purified luciferase in enzyme buffer was rapidly injected into a cuvette containing substrate in substrate buffer to a final enzyme concentration of 100 nM and a final substrate concentration of 10 μM. The emission from 400 to 800 nm was recorded in a fluorimeter with closed excitation slits 10 s after injection.

Data set [2] concerns WT luciferase (Ppy Luc). Kind of data set: Burst kinetics assays / rates of reduction in luminescence. Format: biochemical, Photinus pyralis. As to the method: FIG. 9 is a burst kinetics profile of purified 10 nM luciferase treated with 100 μM D-thioluciferin.
[…] […] Data acquisition was performed with SIS for 2020n v1.9.0 software. Data are reported as Relative Light Units (RLU). To correct for the wavelength sensitivity of the PMT in the 20/20n, total flux was also measured using the IVIS-100 as described above with a final enzyme concentration of 10 nM and a final substrate concentration of 250 μM. […] The correction factor of each enzyme/substrate pair was calculated by dividing the normalized IVIS data by the normalised 20/20n data. All 20/20n data were then multiplied by their respective correction factors.

The subject of data set [3] is purified firefly luciferase (luc) expressed from E. coli. Conditions: cited from earlier work; for λmax (lit.): literature value.
The test system of data set [4] is purified wild type (WT) luciferase (Photinus pyralis (luciferase) [Ppy Luc]). The following applies: cited from earlier work.
The conditions of data set [5]: literature value; cited from earlier work.
Data set [6] concerns purified wild type (WT) luciferase (Photinus pyralis (luciferase) [Ppy Luc]). Kind of data set: Purified protein luminescence assays (Michaelis-Menten kinetics, relative emission intensity). Format: biochemical. Conditions: for Vmax / Km: Michaelis-Menten fit; for Km: apparent Km, WT luciferase, read-out: Km (App.); for luminescence output when treated with luciferase: 0.1 μM solution, luciferase in enzyme buffer, 10 nM. As to the method: FIG. 10 is a relative luminescence emission intensity of the core luciferins (6-hydroxy, 6-amino, 6-thiol) at 0.1 μM substrate concentration and at a final luciferase concentration of 10 nM.
FIG. 11 illustrates luminescence output of 0.1 μM of protected D-thioluciferin sulfide, D-thioluciferin homodisulfide, and free D-thioluciferin at a final luciferase concentration of 10 nM (control readings were recorded for substrates in the absence of the luc enzyme). The RLU were determined in triplicate and are represented as the mean±SEM.
FIG. 13 is a Michaelis-Menten graph for D-Thioluciferin. […] The assays were performed in triplicate and are represented as the mean and each curve was fit to the Michaelis-Menten equation by nonlinear regression (GraphPad 5.0) to determine apparent Km and Vmax.
Luminescence assays were initiated by adding 30 μL of purified luciferase in enzyme buffer (20 mM Tris [pH 7.4], 0.1 mM EDTA, 1 mM TCEP, and 0.8 mg/mL BSA) to 30 μL 2× substrate in substrate buffer (20 mM Tris [pH 7.4], 0.1 mM EDTA, 8 mM MgSO4, and 4 mM ATP) in a black 96-well plate. Imaging was performed one minute after enzyme addition using a Xenogen® IVIS-100® at a final enzyme concentration of 10 nM and final substrate concentrations ranging from 0.122 to 250 μM. Data acquisition and analysis was performed with Living Image® software. Data are reported as total flux (p/s) for each ROI corresponding to each well of the 96-well plate.

The test system of data set [7] is purified firefly luciferase (10 nM) expressed from E. coli. Kind of data set: Inhibition of firefly luciferase by D-thioluciferin sulfide (thioacrylate). Format: biochemical, Photinus pyralis. Conditions: D-thioluciferin 10 μM, increasing sulfide. As to the method:
FIG. 14 is a bar graph showing potential inhibitory effects of firefly luciferase by D-thioluciferin sulfide (thioacrylate). D-thioluciferin (10 μM) was treated with purified firefly luciferase (10 nM) expressed from E. coli and the luminescence recorded in the absence and presence of the sulifide.

Data set [8] in a line: Fluorescence spectrophotometry (excitation emission spectra). Type of data set: physicochemical. The following applies: for fluorescence emission intensity: excitation at 390 nm, FIG. 15. As to the method:
The free D-thioluciferin has a greater intensity relative to the sulfide which is promising for further sensor development.
Excitation and emission spectra were recorded on a Varian Cary Eclipse fluorometer equipped with a regulated temperature cell holder and Hellma, Suprasil® quartz fluorescence cuvettes of 10 mm pathlength and 1.5 mL volume capacity. Emission spectra were recorded at an excitation wavelength corresponding to previously recorded absorption maxima. Samples were prepared as a 0.1 mM DMSO solution, unless otherwise stated, and were scanned from 200 nm to 800 nm (Ex. Slit/Em. Slit 5 nm) at a scan rate of 600.00 nm/mn. Data were analysed using Scan Software Version 1.1.

Setting [9] is: measured for 15 seconds post-specified time.
[10] abbreviates: FIG. 10, 0.1 μM substrate, 10 nM luciferase.

In data set [1], `Nc1ccc2nc(C3=N[C@@H](C(=O)O)CS3)sc2c1` [D-aminoluciferin, (S)-2-(6-aminobenzo[d]thiazol-2-yl)-4,5-dihydrothiazole-4-carboxylic acid] showed a bioluminescence emission wavelength of 593 nm and a λmax of 597 nm. The “time post-addition of rapid decrease in luminescent activity” value in data set [2] worked out at 1 min. Further, in data set [2] (setting [9]), the “Rate 5 min post-addition (rate of reduction in luminescence)” value is reported as 1.216 ± 0.1305 RLU/s and the “Rate 20 minutes post addition (rate of reduction in luminescence)” value came out at 0.1510 ± 0.007506 RLU/s. In data set [3], the “λmax (lit.)” value is on record as 594 nm. Besides, the “Vmax (lit.)” value in data set [4] (literature value) is 169 ± 2.6 photons/min. Also, the Km in data set [4] (literature value, read-out: Km (lit)) was 620 ± 50 nM. Moreover, the Km in data set [4] (previously calculated, comparison, read-out: Km previously calculated) is 390 to 690 nM. The “Fluorescence (lit.)” value in data set [5] was 517 nm. Further, the “emission signal, fold less intense compared to D-luciferin” value in data set [6] (setting [10]) worked out at 100 fold. Moreover, in data set [6] (10 nM luciferase), the Vmax is on record as 13 ± 2.2 RLU/s. The Km in data set [6] came out at 390 ± 80 nM.
In data set [1], `O=C(O)[C@H]1CSC(c2nc3ccc(O)cc3s2)=N1` [D-luciferin, (S)-2-(6-hydroxybenzo[d]thiazol-2-yl)-4,5-dihydrothiazole-4-carboxylate] yielded a bioluminescence emission wavelength of 547 nm and a λmax of 553 nm. Moreover, in data set [1] (listed as D-Luciferin), the bioluminescence emission wavelength was 557 nm. The “time post-addition of rapid decrease in luminescent activity” value in data set [2] worked out at 10 min. Besides, in data set [2] (setting [9]), the “Rate 5 min post-addition (rate of reduction in luminescence)” value came out at 9.300 ± 0.9815 RLU/s and the “Rate 20 minutes post addition (rate of reduction in luminescence)” value is reported as 0.3400 ± 0.05773 RLU/s. The “relative emission λmax” value in data set [3] (background statement) is 594 nm. The “λmax (lit.)” value in data set [3] was 551 nm. In addition, the “Fluorescence (lit.)” value in data set [5] is reported as 528 nm. Also, in data set [6] (setting [10]), the “relative luminescence emission intensity, fold greater than both D-aminoluciferin and D-thioluciferin” value came out at 100 fold. Besides, the Vmax in data set [6] (10 nM luciferase) was 57 ± 13 RLU/s. Moreover, the Km in data set [6] was 8300 nM and 8000 nM.
For `O=C(O)C1CSC(c2nc3ccc(SSc4ccc5nc(C6=NC(C(=O)O)CS6)sc5c4)cc3s2)=N1` [D-thioluciferin disulfide], the “luminescence output when treated with luciferase” value in data set [6] is “much higher luminescence output than its corresponding control”. For the same compound, the “ability to produce bioluminescence (luciferase substrate)” value in data set [6] (FIG. 11) was “neither of which appeared to be bioluminescent substrates”.
Turning to `O=C(/C=C/Sc1ccc2nc(C3=N[C@@H](C(=O)O)CS3)sc2c1)OCc1ccccc1` [D-thioluciferin thioacrylate, (S,E)-2-(6-((3-(benzyloxy)-3-oxoprop-1-en-1-yl)thio)benzo[d]thiazol-2-yl)-4,5-dihydrothiazole-4-carboxylic acid], the inhibition of luciferase entry in data set [7] (FIG. 14) is recorded as “strongly inhibitory”; in data set [7] (FIG. 14, listed as D-thioluciferin sulfide (thioacrylate)), “decrease in emission intensity with increasing concentration of the sulfide”. Besides, in data set [8], the fluorescence emission intensity result was “only weakly fluorescent”. For the same compound, the “luminescence output when treated with luciferase” value in data set [6] is given as “negligible”. Besides, the “ability to produce bioluminescence (luciferase substrate)” value in data set [6] (FIG. 11) is listed as “neither of which appeared to be bioluminescent substrates”.
For the compound `O=C(O)[C@H]1CSC(c2nc3ccc(S)cc3s2)=N1` [D-thioluciferin, (S)-2-(6-mercaptobenzo[d]thiazol-2-yl)-4,5-dihydrothiazole-4-carboxylic acid], in data set [1], the bioluminescence emission wavelength was 599 nm and 600 nm; the λmax turned out to be 599 nm. The “period over which light of constant intensity is sustained” value in data set [2] was 20 min. For the same compound, the burst kinetics profile result in data set [2] (FIG. 9, 10 nM luciferase, 100 μM substrate) is listed as “robust initial burst of light followed by sustained light output of much lower intensity”. Besides, in data set [2] (setting [9]), the “Rate 1 min post-peak emission (rate of reduction in luminescence)” value amounted to 4.929 ± 0.1584 RLU/s, the “Rate 5 min post-addition (rate of reduction in luminescence)” value is recorded as 0.0067 RLU/s and the “Rate 20 minutes post addition (rate of reduction in luminescence)” value is on record as 0.0022 RLU/s. In addition, in data set [8], the fluorescence emission intensity result is given as “strong fluorescence emission”. The Fluorescence in data set [8] (fluorescence emission) amounted to 500 nm. Moreover, in data set [6], the “emission, fold greater over the background” value is reported as more than 100 fold; the Michaelis-Menten constant (Km) is 117 nM and 100 nM. Besides, the “emission signal, fold less intense compared to D-luciferin” value in data set [6] (setting [10]) turned out to be 100 fold. Besides, the “luminescence output, fold greater than protected thioacrylate (sulfide)” value in data set [6] (FIG. 11, 0.1 μM, 10 nM luciferase) was determined as 90 fold. In addition, in data set [6] (10 nM luciferase), the Vmax is 0.7597 ± 0.1071 RLU/s and 0.6661 ± 0.1522 RLU/s. Besides, in data set [6] (listed as D-Thioluciferin), the Km came to 98 ± 14.7 nM.

What is called Km is the substrate concentration at which the rate is half of its maximum.

These data come from patent publication US11149034B2, “Derivatives of luciferin and methods for their synthesis” (UNIVERSITY OF CAPE TOWN, priority 2017, dated 2021).
